Data as given in ChEMBL document CHEMBL4004854, “Pyrrolo[3',2':6,7]cyclohepta[1,2-b]pyridines with potent photo-antiproliferative activity” (Eur J Med Chem, 2017).
The source made the active and inactive calls. The rule behind the calls is not given here.

Assays:
Jurkat [1] = assay: Phototoxic index, ratio of CC50 for human Jurkat cells under dark condition to EC50 for human Jurkat cells under UV light irradiated condition
[2] = Dark toxicity against human Jurkat cells assessed as reduction in cell viability after 72 hrs by MTT assay; type: cell-based
MCF7 [3] = assay: Phototoxicity against human MCF7 cells assessed as reduction in cell viability preincubated for 30 mins followed by 1.25 J/cm2 UV light irradiation measured after 48 hrs by MTT assay; type: functional, cell-based; conditions: MCF7, light or radiation study
MCF7 [4] = assay: Phototoxic index, ratio of CC50 for human MCF7 cells under dark condition to EC50 for human MCF7 cells under UV light irradiated condition
[5] = Dark toxicity against human K562 cells assessed as reduction in cell viability after 72 hrs by MTT assay; type: cell-based
Jurkat [6] = assay: Phototoxicity against human Jurkat cells assessed as reduction in cell viability preincubated for 30 mins followed by 1.25 J/cm2 UV light irradiation measured after 48 hrs by MTT assay; type: functional, cell-based; conditions: light or radiation study
K562 [7] = assay: Phototoxicity against human K562 cells assessed as reduction in cell viability preincubated for 30 mins followed by 1.25 J/cm2 UV light irradiation measured after 48 hrs by MTT assay; type: functional, cell-based; conditions: K562, light or radiation study
K562 [8] = assay: Phototoxic index, ratio of CC50 for human K562 cells under dark condition to EC50 for human K562 cells under UV light irradiated condition
[9] = Dark toxicity against human MCF7 cells assessed as reduction in cell viability after 72 hrs by MTT assay; type: cell-based
Jurkat [10] = assay: Phototoxicity against human Jurkat cells assessed as reduction in cell viability at 0.1 uM preincubated for 30 mins followed by 2.5 J/cm2 UV light irradiation measured after 72 hrs in presence of singlet oxygen scavenger sodium azide by MTT assay; type: functional, cell-based
Jurkat [11] = assay: Phototoxicity against human Jurkat cells assessed as reduction in cell viability at 0.1 uM preincubated for 30 mins followed by 2.5 J/cm2 UV light irradiation measured after 72 hrs in presence of vitamin E by MTT assay; type: functional, cell-based
Escherichia coli [12] = assay: Induction of Escherichia coli pBR322 DNA single strand break assessed as open circular form DNA bands at 10 to 40 uM upon 7.5 J/cm2 UV-A light irradiation by ethidium bromide staining based UV transillumination assay
Jurkat [13] = assay: Phototoxicity against human Jurkat cells assessed as reduction in cell viability at 0.1 uM preincubated for 30 mins followed by 2.5 J/cm2 UV light irradiation measured after 72 hrs in presence of hydroxyl radical scavenger DMTU by MTT assay; type: functional, cell-based
Escherichia coli [14] = assay: Induction of Escherichia coli pBR322 DNA oxidative damage at 40 uM upon 7.5 J/cm2 UV-A light irradiation in presence of Fpg by ethidium bromide staining based electrophoresis
[15] = Solubility of the compound in aqueous acetonitrile solution; type: physicochemical; conditions: buffer
Escherichia coli [16] = assay: Induction of Escherichia coli pBR322 DNA oxidative damage at 40 uM upon 7.5 J/cm2 UV-A light irradiation in presence of endonuclease-3 by ethidium bromide staining based electrophoresis
Jurkat [17] = assay: Phototoxicity against human Jurkat cells assessed as reduction in cell viability at 0.1 uM preincubated for 30 mins followed by 2.5 J/cm2 UV light irradiation measured after 72 hrs in presence of antioxidant GSH by MTT assay; type: functional, cell-based
Escherichia coli [18] = assay: Induction of Escherichia coli pBR322 DNA double strand break assessed as linear form DNA bands at 10 to 40 uM upon 7.5 J/cm2 UV-A light irradiation by ethidium bromide staining based UV transillumination assay
Jurkat [19] = assay: Induction of lipid peroxidation in human Jurkat cells upon 2.5 J/cm2 UV light irradiation measured after 24 hrs by TBARS assay; type: functional, cell-based
MCF7 [20] = assay: Induction of apoptosis in human MCF7 cells assessed as caspase-3 activation at 0.5 uM upon 2.5 J/cm2 UV light irradiation measured after 24 hrs by Western blot method; type: functional, cell-based
MCF7 [21] = assay: Induction of mitochondrial dysfunction in human MCF7 cells assessed as organelle fusion at 400 nM upon UV light irradiation measured after 6 hrs by mitotracker orange CMTM-ROS/LCS1 dye based confocal microscopic method; type: functional, cell-based
MCF7 [22] = assay: Induction of lysosomal activation in human MCF7 cells at 400 nM upon UV light irradiation measured up to 6 hrs by lysotracker green DND26 dye based confocal microscopic method; type: functional, cell-based
MCF7 [23] = assay: Induction of ROS generation in human MCF7 cells at 400 nM preincubated for 30 mins followed by UV light irradiation measured after 2 hrs by H2DCFDA staining based fluorescence assay relative to control; type: functional
[24] = Singlet oxygen sensitizing activity in aqueous acetonitrile solution irradiated with nanosecond laser flash photolysis assessed as lowest triplet-excited state by measuring long lived transient life time at 10^-4 M at 450 nanometer under argon saturated condition by spectroscopic method
[25] = Induction of singlet oxygen photogeneration in aqueous acetonitrile solution of ADPA assessed as photobleaching of anthracene absorption upon 150 Watt mercury light irradiation at 400 nanometer measured up to 2 hrs

| Structure (SMILES) | Ratio CC50/EC50 (Jurkat [1]) | CC50 at 72 h [2] [µM] | EC50 (MCF7 [3]) [nM] | Ratio CC50/EC50 (MCF7 [4]) | CC50 at 72 h [5] [µM] | EC50 (Jurkat [6]) [nM] | EC50 (K562 [7]) [µM] | Ratio CC50/EC50 (K562 [8]) | CC50 at 72 h [9] [µM] | other results |
| --- | --- | --- | --- | --- | --- | --- | --- | --- | --- | --- |
| CCOC(=O)c1cc2c(n1C)-c1[nH]c(=O)c(S(=O)(=O)c3ccccc3)cc1CCC2 | >6.06 | > 20 | 1000 | >20 | > 20 | 3300 | 10.7 | >1.87 | > 20 | – |
| CCOC(=O)c1cc2c(n1Cc1ccc(OC)cc1)-c1nc(OC)c(S(=O)(=O)c3ccccc3)cc1CCC2 | >80 | > 20 | 1010 | >19.71 | > 20 | 250 | 0.95 | >21.05 | > 20 | Activity (Jurkat [10]): Active; Activity (Jurkat [11]): inactive; Activity (Escherichia coli [12]): inactive; Activity (Jurkat [13]): Active; Activity (Escherichia coli [14]): Active; solubility [15]: Insoluble; Activity (Escherichia coli [16]): Active; Activity (Jurkat [17]): Active; Activity (Escherichia coli [18]): inactive; Activity (Jurkat [19]): Dose-dependent effect; Activity (MCF7 [20]): Active |
| CCOC(=O)c1cc2c(n1C)-c1c(cc(S(=O)(=O)c3ccccc3)c(=O)n1C)CCC2 | >17.39 | > 20 | 4760 | >4.2 | > 20 | 1150 | 3.53 | >5.67 | > 20 | – |
| COc1ccc(Cn2ccc3c2-c2nc(OC)c(S(=O)(=O)c4ccccc4)cc2CCC3)cc1 | >16 | > 20 | 4740 | >4.22 | > 20 | 1250 | 5.67 | >3.53 | > 20 | – |
| O=c1[nH]c2c(cc1S(=O)(=O)c1ccccc1)CCCc1ccn(Cc3ccccc3)c1-2 | >5.57 | > 20 | 2720 | >7.36 | > 20 | 3590 | 8.5 | >2.35 | > 20 | – |
| CCCCCCCCCCCCCC(=O)O[C@@H]1[C@@H](C)[C@@]2(O)[C@@H](C=C(CO)C[C@]3(O)C(=O)C(C)=C[C@@H]23)[C@@H]2C(C)(C)[C@]12OC(C)=O [PHORBOL MYRISTATE ACETATE] | – | – | – | – | – | – | – | – | – | Activity (MCF7 [21]): Active; Activity (MCF7 [22]): Active; Activity (MCF7 [23]): 120% |
| CCOC(=O)c1cc2c(n1Cc1ccccc1OC)-c1[nH]c(=O)c(S(=O)(=O)c3ccccc3)cc1CCC2 | >105.26 | > 20 | 940 | >21.36 | > 20 | 190 | 0.27 | >74.07 | > 20 | – |
| COc1nc2c(cc1S(=O)(=O)c1ccccc1)CCCc1ccn(C)c1-2 | >10.2 | > 20 | 2140 | >9.35 | > 20 | 1960 | 5.76 | >3.47 | > 20 | – |
| CCOC(=O)c1cc2c(n1Cc1cccc(OC)c1)-c1[nH]c(=O)c(S(=O)(=O)c3ccccc3)cc1CCC2 | >83.33 | > 20 | 2580 | >7.77 | > 20 | 240 | 0.47 | >42.55 | > 20 | – |
| COc1cccc(Cn2ccc3c2-c2[nH]c(=O)c(S(=O)(=O)c4ccccc4)cc2CCC3)c1 | – | > 20 | 1860 | >10.76 | > 20 | > 20000 | > 20 | – | > 20 | Time [24]: > 30 microsec; Activity [25]: inactive |
| Cn1ccc2c1-c1[nH]c(=O)c(S(=O)(=O)c3ccccc3)cc1CCC2 | – | > 20 | 2960 | >6.77 | > 20 | > 20000 | > 20 | – | > 20 | – |
| CCOC(=O)c1cc2c(n1Cc1ccccc1)-c1[nH]c(=O)c(S(=O)(=O)c3ccccc3)cc1CCC2 | >66.67 | > 20 | 1410 | >14.22 | > 20 | 300 | 0.4 | >50 | > 20 | – |
| CCOC(=O)c1cc2c(n1C)-c1nc(OC)c(S(=O)(=O)c3ccccc3)cc1CCC2 | >80 | > 20 | 1700 | >11.76 | > 20 | 250 | 0.63 | >31.75 | > 20 | – |
| COc1ccc(Cn2ccc3c2-c2[nH]c(=O)c(S(=O)(=O)c4ccccc4)cc2CCC3)cc1 | >21.51 | > 20 | 4230 | >4.73 | > 20 | 930 | 2.54 | >7.87 | > 20 | – |
| COc1ccccc1Cn1ccc2c1-c1[nH]c(=O)c(S(=O)(=O)c3ccccc3)cc1CCC2 | >10.53 | > 20 | 940 | >21.23 | > 20 | 1900 | 7.68 | >2.6 | > 20 | – |
